The subject of this assay is C57BL/6 mice. Put plainly: In vivo hair growth promoting effects on shaved back of C57BL/6 mice. The arrangement: species or system mouse. The conditions noted are these: seven week-old female C57BL/6 mice in telogen, 100 ul applied once a day for 30 days, compared to vehicle control. How it is done:
Seven week-old, female C57BL/6 mice were housed in groups of 7 to 11 animals. Mice were in the telogen stage of the hair cycle when used, as indicated by the pinkish color of the skin.
The mice's hair of the region of back was shaved by a clipper. After a one day for adaptation 100 ul of [γ-hydroxy-methylleucine^4] cyclosporin A was applied on the shaved portion once a day for a period of 30 days. After determining the degree of hair growth by the naked eye, the results were photographed. […] In contrast, animals treated with the derivatives (the 11 derivatives mentioned in REFERENCE EXAMPLES 6 to 11) were almost at the level of the control group, having virtually no effects (data not shown).
The test expanded to the derivatives modified on No. 4 amino acid, methylleucine. The results of the hair growth-stimulating effects on the derivatives in which the original No. 4 amino acid, methylleucine, is substituted with the similarly structured methylisoleucine, methylvaline, leucine, isoleucine, methylalanine (REFERENCE EXAMPLES 1 to 5) are represented in FIG. 17 to FIG. 23, wherein the hair growth-stimulating effects of […], [methylvaline^4] (FIG. 20), [leucine^4] (FIG. 21), [isoleucine^4] (FIG. 22), [methylalanine^4]

For the substance [Ile^4] cyclosporin A [[isoleucine^4]], the “degree of hair growth (hair growth promoting effect) by the naked eye, photographed” value (shortened to “degree of hair growth”) was “much lesser than cyclosporin A”.
The entry for [Leu^4] cyclosporin A [[leucine^4]] is “much lesser than cyclosporin A”.
Take “[MeAla^4] cyclosporin A [[methylalanine^4]]”: the “degree of hair growth” value is on record as “much lesser than cyclosporin A”.
With “[MeVal^4] cyclosporin A [[methylvaline^4]]”, the “degree of hair growth” value is “much lesser than cyclosporin A”.
Take “[methylisoleucine^4] cyclosporin A [[methylleucine^4]]”: the “degree of hair growth” value was “much lesser than cyclosporin A”.

(Values after patent US6521595B1, “Nonimmunosuppressive [γ-hydroxy-methylleucine4] cyclosporin A, hair growth stimulator and external composition for skin using the same” (LG Chemical, Ltd., priority 1999, dated 2003).)
